In patent publication US5753631A, “Intercellular adhesion mediators” (Cytel Corporation, priority 1995, dated 1998):
Read-outs that look alike come from different tables or passages of the source.

Tests used:
P-Selectin = target: T1, P-Selectin (Homo sapiens, UniProt P16109); assay: Oligosaccharide/polysaccharide inhibition of neutrophil adhesion to thrombin activated platelets; assay type: cell-based; conditions: for IC50: read-out: AMOUNT REQUIRED FOR 50% INHIBITION (converted)
T1 construct: endogenous in cells
T1 sequence (P16109 42-830): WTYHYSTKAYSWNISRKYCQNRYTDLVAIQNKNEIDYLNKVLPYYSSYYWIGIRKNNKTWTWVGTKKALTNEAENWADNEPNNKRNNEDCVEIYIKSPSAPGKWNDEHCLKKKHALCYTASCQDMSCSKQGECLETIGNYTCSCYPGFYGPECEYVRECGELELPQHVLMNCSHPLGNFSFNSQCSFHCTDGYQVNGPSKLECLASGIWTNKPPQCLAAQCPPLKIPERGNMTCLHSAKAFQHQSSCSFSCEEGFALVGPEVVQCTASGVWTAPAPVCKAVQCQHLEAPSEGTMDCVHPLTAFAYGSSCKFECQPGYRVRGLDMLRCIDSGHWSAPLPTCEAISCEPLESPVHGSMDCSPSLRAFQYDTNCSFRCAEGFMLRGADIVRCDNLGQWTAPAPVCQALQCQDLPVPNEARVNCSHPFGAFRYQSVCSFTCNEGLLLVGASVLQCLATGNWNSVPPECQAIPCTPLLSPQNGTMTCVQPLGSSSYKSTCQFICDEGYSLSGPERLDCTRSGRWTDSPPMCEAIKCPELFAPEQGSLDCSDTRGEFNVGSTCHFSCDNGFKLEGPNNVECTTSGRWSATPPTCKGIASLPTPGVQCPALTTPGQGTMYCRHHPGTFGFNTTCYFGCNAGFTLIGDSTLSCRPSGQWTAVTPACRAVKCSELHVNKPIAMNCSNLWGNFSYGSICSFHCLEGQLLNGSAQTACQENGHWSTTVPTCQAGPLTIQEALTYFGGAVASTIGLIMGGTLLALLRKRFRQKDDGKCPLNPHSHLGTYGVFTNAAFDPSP
Description: (§1) Briefly, platelets and neutrophils were isolated by the methods described above. Platelets were activated with thrombin and then incubated with dilutions of various oligosaccharides. Neutrophils were added, and the effect of the saccharides on the adhesion of neutrophils to activated platelets was determined.
1. Platelets were isolated as described above and were activated (2×10^8 /ml) by incubation for 20 min at room temperature with thrombin at a final concentration of 0.25 U/ml.
2. Neutrophils were isolated by layering heparinized blood over Mono-Poly Resolving Medium (Ficoll-Hypaque-Flow Laboratories), followed by centrifugation for 25 min at 2000 rpm and then, a further 25 min at 2500 rpm as described above.
3. For the assay, 20 μl of the platelet suspension (2×10^8 /ml) was placed in a microcentrifuge tube. An equal volume of the oligosaccharide preparations at concentrations from 200 μg/ml to 0.3 μg/ml, or of glycolipid-liposome preparations (prepared as described above), at concentrations from 2 μg/ml to 0.25 μg/ml, was added and the tubes were allowed to stand at room temperature for 20 min. Twenty μl of the neutrophil preparation (2×10^6 /ml) was then added and the tubes were allowed to stand for a further 20 min at room temperature.
(§2) 4. Adhesion of activated platelets to the neutrophils was assessed microscopically. One hundred neutrophils were evaluated. They were scored as positive if 2 or more platelets were attached and negative if less than 2 platelets were bound. The percent of cells with 2 or more bound platelets was calculated.
as §1, with “added” for “added,”
Platelets were isolated as described above and were activated (2×10^8 /ml) by incubation for 20 min at room temperature with thrombin at a final concentration of 0.25 U/ml.
Neutrophils were isolated by layering heparinized blood over Mono-Poly Resolving Medium (Ficoll-Hypaque, Flow Laboratories), followed by centrifugation for 25 min at […] and then, a further 25 min at 2500 rpm as described above.
For the assay, 20 μl of the platelet suspension (2×10^8 /ml) was placed in an Eppendorf centrifuge tube. An equal volume of the oligosaccharide preparations at concentrations from 500 μg/ml to 2.0 μg/ml was added and the tubes were allowed to stand at room temperature for 20 min. Twenty […] of the neutrophil preparation (2×10^6 /ml) was then added and the tubes were allowed to stand for a further 20 min at room temperature.
as §2, with “Adhesion” for “4. Adhesion”

[1] = test system: histamine induced leukocyte rolling in rat mesenteric venules; assay: Histamine induced leukocyte rolling and adherence in rat mesenteric venules (intravital microscopy); assay type: in vivo, rat (male Sprague-Dawley)
Description: Surgical procedure. Sixty-four male Sprague-Dawley rats (200-250 g) were maintained on a purified laboratory diet and fasted for 24 hours prior to the experiment. The animals were initially anesthetized with pentobarbital (65 mg/kg body weight), then a tracheotomy was performed to facilitate breathing during the experiment. The right carotid artery was cannulated and systemic arterial pressure was measured with a Statham (Oxnard, Calif.) P23A pressure transducer connected to the carotid artery cannula. Systemic blood pressure and heart rate were continuously recorded with a Grass physiologic recorder (Grass Instruments, Massachusetts). The left jugular vein was also cannulated for drug administration and blood sample collection. After a midline abdominal incision a segment of the mid-jejunum was exteriorized. All exposed tissue was moistened with saline-soaked gauze to minimize evaporation and dehydration.
Intravital microscopy. Rats were placed in a supine position on an adjustable plexiglass microscope stage and the mesentery was draped over an optically clear coverslip that allowed for observation of a 2 cm^2 segment of tissue. The temperature of the pedestal was maintained at 37° C. with a constant temperature circulator (Fisher Scientific, model 80). A small rubber gasket (area=3.14 cm^2) was placed on the mesentery and the outside area of contact between the gasket and mesentery was sealed (to prevent leakage of superfusate from the ring) with a mixture of high vacuum grease (Dow Corning Corp., Midland, Mich.) and white petrolatum (E. Fougera & Co., Melville, N.Y.). Rectal and mesenteric temperatures were continuously monitored using an electrothermometer. The exposed bowel wall was covered with Saran Wrap (Dow Chemical Co., Indiana), and the mesenteric tissue within the gasket was suffused with warmed bicarbonate-buffered saline (BBS; pH 7.4) that was bubbled with a mixture of 5% O2; 5% CO2; 90% N2.
An inverted microscope (Nikon Optiphoto, Japan) with a ×40 objective lens (Nikon Optiphoto, Japan) and a ×10 eyepiece was used to observe the mesenteric microcirculation. The mesentery was transilluminated with a 12 V-100 W direct current-stabilized light source. A video camera (Hitachi, VK-C150, Japan) mounted on the microscope projected the image onto a color monitor (Sony, PVM-2030, Japan), and the images were recorded using a video cassette recorder (Panasonic, NV8950, Japan). A video time-date generator (Panasonic, WJ810, Japan) projected the time, date, and stopwatch function onto the monitor.
Single unbranched venules with diameters ranging between 25 μm and 35 μm and a length>150 μm were selected for study. Venular diameter (Dv) was measured either on- or off-line using a video image-shearing monitor (IPM, La Mesa, Calif.). The number of adherent leukocytes was determined off-line during playback of videotaped images. A leukocyte was considered to be adherent to venular endothelium if it remained stationary for a period equal to or greater than 30 seconds. Adherent cells were expressed as the number per 100 μm length of venule. The number of emigrated leukocytes was also determined off-line during playback of videotaped images. Ary interstitial leukocytes present in the mesentery at the onset of the experiment were subtracted from the total number of leukocytes that accumulated during the course of the experiment. Leukocyte emigration was expressed as the number per microscopic field (1.7×10^-2 mm^2) or 150 μm length of venule. Rolling leukocytes were defined as those white blood cells that moved at a velocity less than that of erythrocytes in the same stream. The flux of rolling leukocytes was determined as the number of rolling leukocytes which crossed a fixed point on the venule over a given period of time. Leukocyte rolling velocity was determined from the time required for a leukocyte to roll along a given distance of the venule.

[2] = test system: CVF-induced acute lung injury; assay: Cobra venom factor (CVF)-induced acute lung injury in the rat; assay type: in vivo; conditions: in words; prior to CVF, 30 minutes
Description: Groups of rats were pretreated with either vehicle, SLN-OH (0.6 mg/Kg), or with SLX-OH (0.6 mg/Kg) 5 minutes prior to administration of either CVF or PBS. Each bar represents the mean of 6 animals and vertical lines represent the standard error of the mean.
Groups of rats were pretreated with either vehicle or Z at the indicated doses 5 minutes prior to administration of CVF or PBS. Each point represents the mean of 6 animals and vertical lines represent the standard error of the mean.
The intravenous injection of CVF produces intravascular complement activation which results in lung injury, defined as an increase in neutrophil accumulation within the lung, an increase in pulmonary vascular permeability and in lung hemorrhage. It is likely that intravascular complement activation results in the generation of a wide range of inflammatory mediators. Of particular relevance to the studies described here is generation of the split fifth complement component, C5a, which can stimulate the release of histamine from circulating basophils and tissue mast cells. […] The expression of selectins, including P-selectin, is a necessary first step in the process of leukocyte adherence to vascular endothelium.
Animals were dosed with different oligosaccharide preparations or phosphate buffered saline (PBS) five minutes before administration of cobra venom factor (20 units/Kg, i.v.). Included in this material was an aliquot of ^125 I-bovine serum albumin (0.5 μCi) and ^51 Cr labelled autologous red blood cells (0.5 μCi) for measuring plasma extravasation and hemorrhage respectively. Thirty minutes after administration of the cobra venom factor the animals were anesthetized with ketamine hydrochloride (10 mg/Kg) and exsanguinated via the posterior vena cava. The lung vasculature was then perfused through the right cardiac ventricle with 10 mL of PBS. The lungs were removed and the amount of radioactivity remaining within the tissue assessed with a gamma scintillation counter. Increased pulmonary vascular permeability was measured as the ratio of ^125 I in lung tissue compared with the amount present in 1 mL of venous blood obtained at the time of death. Lung hemorrhage was measured as the ratio of ^51 Cr in lung tissue compared with the amount present in 1 mL of venous blood obtained at the time of death. Neutrophil accumulation in lungs was determined by measuring the myeloperoxidase activity of lungs homogenized in PBS. Myeloperoxidase activity in lung supernatants was assayed by measuring the change in absorbance at 460 nm resulting from decomposition of H2 O2 in the presence of o-dianisidine

[3] = Table 2, mean of three identical experiments

## CC(=O)N[C@H]1[C@H]([C@H](O)[C@H](O)CO)O[C@@](O[C@H]2[C@@H](O)[C@@H](CO)O[C@@H](O[C@H]3[C@H](O[C@@H]4O[C@@H](C)[C@@H](O)[C@@H](O)[C@@H]4O)[C@@H](NC(C)=O)C(O)O[C@@H]3CO)[C@@H]2O)(C(=O)O)C[C@@H]1O (stereo partly shown) [SLe^x (tetra), NeuAcα2,3Galβ1,4 (Fucα1,3)GlcNAc]
P-Selectin; [3]
  IC50: 54 µM
P-Selectin; tetrasaccharide versus hexasaccharide
  times more required for 50% inhibition than of the SLe^x-hexasaccharide: approximately 20 times

## CC(=O)N[C@H]1C(O)O[C@H](CO)[C@@H](O[C@@H]2O[C@H](CO)[C@H](O)[C@H](O)[C@H]2O)[C@@H]1O[C@@H]1O[C@@H](C)[C@@H](O)[C@@H](O)[C@@H]1O (stereo partly shown) [Le^x, reference compound]
P-Selectin; [3]
  IC50: 43 µM

## CC(=O)N[C@H]1[C@H](O[C@@H]2[C@@H](O)[C@H](O)O[C@H](CO)[C@@H]2O)O[C@H](CO)[C@@H](O[C@@H]2O[C@H](CO)[C@H](O)[C@H](O[C@]3(C(=O)O)C[C@H](O)[C@@H](NC(C)=O)[C@H]([C@H](O)[C@H](O)CO)O3)[C@H]2O)[C@@H]1O[C@@H]1O[C@@H](C)[C@@H](O)[C@@H](O)[C@@H]1O [SLe^x (penta), NeuAcα2,3Galβ1,4-(Fucα1,3)GlcNacβ1,3Galβ]
P-Selectin; [3]
  IC50: 2.2 µM

## CC(=O)N[C@H]1[C@H](O[C@H]2[C@@H](O)[C@@H](CO)O[C@@H](O[C@H]3[C@H](O)[C@@H](O)C(O)O[C@@H]3CO)[C@@H]2O)O[C@H](CO)[C@@H](O[C@@H]2O[C@H](CO)[C@H](O)[C@H](O)[C@H]2O)[C@@H]1O[C@@H]1O[C@@H](C)[C@@H](O)[C@@H](O)[C@@H]1O (stereo partly shown) [LNF III (Le^x), reference compound]
P-Selectin; Table 6
  IC50: 41 µM

## NCCc1c[nH]cn1 [histamine]
[1]; histamine 10^-5 M
  Erythrocyte velocity: 1.8 ± 0.4 mm/sec
  Leukocyte adherence: 7.2 ± 1.1 per 100 μm
  Leukocyte emigration: 2.5 ± 0.9 per field
  Venular diameter: 30 ± 1 μm
  Wall shear rate: 303 ± 64 s⁻¹
  number of rolling leukocytes, fold increase: 10 -fold
  recruitment of rolling leukocytes, fold increase: 5 -fold
  reduction of leukocyte rolling velocity: 50%
[1]; histamine 10^-6 M
  Erythrocyte velocity: 2.4 ± 0.2 mm/sec
  Leukocyte adherence: 4.8 ± 0.7 per 100 μm
  Leukocyte emigration: 2.0 ± 0.7 per field
  Venular diameter: 30 ± 1 μm
  Wall shear rate: 401 ± 91 s⁻¹
[1]; histamine 10^-6 M and 10^-5 M
  effect on number of adherent leukocytes: Significant increases in the number of adherent leukocytes
[1]; histamine 10^-7 M
  Erythrocyte velocity: 2.8 ± 0.2 mm/sec
  Leukocyte adherence: 2.8 ± 0.7 per 100 μm
  Leukocyte emigration: 1.5 ± 0.7 per field
  Venular diameter: 30 ± 1 μm
  Wall shear rate: 476 ± 38 s⁻¹

## CC(=O)N[C@H]1[C@H]([C@H](O)[C@H](O)CO)O[C@@](O[C@H]2[C@@H](O)[C@@H](CO)O[C@@H](O[C@H]3[C@H](O)[C@@H](NC(C)=O)C(O)O[C@@H]3CO)[C@@H]2O)(C(=O)O)C[C@@H]1O (stereo partly shown) [SLN-OH, sialyl-N-acetyllactosamine, reference compound]
[2]
  effect on CVF-induced permeability, hemorrhage, MPO / lung injury: unaltered
